Consider 13 compounds from patent US7709521B2, “Substituted indole derivatives for pharmaceutical compositions for treating respiratory diseases” (AstraZeneca AB, priority 2003, dated 2010).

Molecules are shown by their SMILES.

Test system in the first series: not given
Assay: not given
Settings: not given
Compound `Cc1c(Oc2ccc(S(C)(=O)=O)cc2)c2cc(F)ccc2n1CC(=O)O` [Example 2, 5-Fluoro-2-methyl-3-[4-(methylsulfonyl)phenoxy]-1H-indole-1-acetic acid] came in with a melting point of 204 to 207 °C.

For `CNC(=O)c1ccc(Oc2c(C)n(CC(=O)O)c3ccc(F)cc23)cc1` [Example 10, 5-Fluoro-2-methyl-3-[4-[(methylamino)carbonyl]phenoxy]-1H-indole-1-acetic acid], the melting point was 217 to 218 °C.

Turning to `CCNC(=O)c1ccc(Oc2c(C)n(CC(=O)O)c3ccc(F)cc23)cc1` [Example 11, 3-[4-[(Ethylamino)carbonyl]phenoxy]-5-fluoro-2-methyl-1H-indole-1-acetic acid], the melting point was 220 to 222 °C.

`Cc1c(Oc2ccc(C(=O)NC(C)C)cc2)c2cc(F)ccc2n1CC(=O)O` [Example 12, 5-Fluoro-2-methyl-3-[4-[[(1-methylethyl)amino]carbonyl]phenoxy]-1H-indole-1-acetic acid]: the melting point lay within 218 to 219 °C.

`Cc1c(Oc2ccc(C(=O)O)cc2)c2cc(Cl)ccc2n1CC(=O)O` [Example 13, 3-(4-Carboxyphenoxy)-5-chloro-2-methyl-1H-indole-1-acetic acid]: the melting point is 215 to 216 °C.

In turn, `COC(=O)c1ccc(Oc2c(C)n(CC(=O)O)c3ccc(F)cc23)cc1` [Example 14, 5-Fluoro-3-[4-(methoxycarbonyl)phenoxy]-2-methyl-1H-indole-1-acetic acid] registered a melting point of 195 to 196 °C.

With `COC(=O)c1ccc(Oc2c(C)n(CC(=O)O)c3ccc(Cl)cc23)cc1` [Example 15, 5-Chloro-3-[4-(methoxycarbonyl)phenoxy]-2-methyl-1H-indole-1-acetic acid], the melting point fell in the range of 196 to 197 °C.

On to `CNC(=O)c1ccc(Oc2c(C)n(CC(=O)O)c3ccc(Cl)cc23)cc1` [Example 16, 5-Chloro-2-methyl-3-[4-[(methylamino)carbonyl]phenoxy]-1H-indole-1-acetic acid], for which the melting point was 225 °C (dec.).

As for `CCNC(=O)c1ccc(Oc2c(C)n(CC(=O)O)c3ccc(Cl)cc23)cc1` [Example 17, 5-Chloro-3-[4-[(ethylamino)carbonyl]phenoxy]-2-methyl-1H-indole-1-acetic acid], the melting point is 220 °C (dec.).

For `Cc1c(Oc2ccc(C(=O)NC(C)C)cc2)c2cc(Cl)ccc2n1CC(=O)[O-].[Na+]` [Example 18, Sodium 5-Chloro-2-methyl-3-[4-[[(1-methylethyl)amino]carbonyl]phenoxy]-1H-indole-1-acetate], the melting point is under 275 °C.

Another series deals with T1, rhCRTh2 (Homo sapiens, UniProt Q9Y5Y4).
T1 construct: expressed in transfected cells; host or cells: HEK cells (membrane preparation)
T1 sequence (Q9Y5Y4 1-395): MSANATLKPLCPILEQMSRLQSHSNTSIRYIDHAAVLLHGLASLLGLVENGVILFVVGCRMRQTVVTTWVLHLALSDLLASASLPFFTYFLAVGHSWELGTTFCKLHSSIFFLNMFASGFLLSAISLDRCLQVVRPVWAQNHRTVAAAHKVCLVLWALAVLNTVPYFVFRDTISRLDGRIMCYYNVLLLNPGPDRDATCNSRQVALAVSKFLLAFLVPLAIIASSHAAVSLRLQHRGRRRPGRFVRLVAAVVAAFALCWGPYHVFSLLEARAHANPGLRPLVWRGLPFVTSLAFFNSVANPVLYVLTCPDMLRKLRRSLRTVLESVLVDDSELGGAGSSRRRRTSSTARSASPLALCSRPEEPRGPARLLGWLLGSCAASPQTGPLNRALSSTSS
Nature of the series: Ligand binding assay ([3H]PGD2 displacement, SPA, HEK cell membranes). The settings on record: [3H]PGD2 binding to membranes of HEK cells expressing rhCRTh2/Gα16, SPA beads, room temperature, 2 hours.
Protocol: [^3H]PGD2 was purchased from Perkin Elmer Life Sciences with a specific activity of 100-210 Ci/mmol.
HEK cells expressing rhCRTh2/Gα16 were routinely maintained in DMEM containing 10% Foetal Bovine Serum (HyClone), 1 mg/ml geneticin, 2 mM L-glutamine and 1% non-essential amino acids. For the preparation of membranes, the adherent transfected HEK cells were grown to confluence in two layer tissue culture factories (Fisher, catalogue number TKT-170-070E). Maximal levels of receptor expression were induced by addition of 500 mM sodium butyrate for the last 18 hours of culture. The adherent cells were washed once with phosphate buffered saline (PBS, 50 ml per cell factory) and detached by the addition of 50 ml per cell factory of ice-cold membrane homogenisation buffer [20 mM HEPES (pH 7.4), 0.1 mM dithiothreitol, 1 mM EDTA, 0.1 mM phenyl methyl sulphonyl fluoride and 100 μg/ml bacitracin]. Cells were pelleted by centrifugation at 220×g for 10 minutes at 4° C., re-suspended in half the original volume of fresh membrane homogenisation buffer and disrupted using a Polytron homogeniser for 2×20 second bursts keeping the tube in ice at all times. […] The final pellet was re-suspended in 4 ml of membrane homogenisation buffer per cell factory used and the protein content determined. […]
All assays were performed in Corning clear bottomed, white 96-well NBS plates (Fisher). […] (The optimum coating concentrations were determined for each batch of membranes) The beads were pelleted by centrifugation (800×g for 7 minutes at 4° C.), washed once with assay buffer (50 mM HEPES pH 7.4 containing 5 mM magnesium chloride) and finally re-suspended in assay buffer at a bead concentration of 10 mg/ml.
Compounds and DK-PGD2 were dissolved in DMSO and diluted in the same solvent to 100× the required final concentration. […] The assay plate was incubated at room temperature for 2 hours and counted on a Wallac Microbeta liquid scintillation counter (1 minute per well).
For the compound `Cc1c(Oc2ccc(Cl)cc2)c2cc(S(C)(=O)=O)ccc2n1CC(=O)O` [Example 5, 3-(4-chlorophenoxy)-2-methyl-5-(methylsulfonyl)-1H-indole-1-acetic acid], the IC50 was 89.1 nM.

Regarding `Cc1c(Oc2ccc(Cl)cc2)c2cc(C(F)(F)F)ccc2n1CC(=O)O` [Example 6, 3-(4-chlorophenoxy)-2-methyl-5-(trifluoromethyl)-1H-indole-1-acetic acid], the IC50 is 11.2 nM.

`Cc1c(Oc2ccc(C(=O)O)cc2)c2cc(F)ccc2n1CC(=O)O` [Example 9, 3-(4-Carboxyphenoxy)-5-fluoro-2-methyl-1H-indole-1-acetic acid] showed an IC50 of 178 nM.

The term melting point denotes the temperature of the solid-liquid transition. As a reminder, the IC50 is the midpoint of a concentration-inhibition curve. Read a high IC50 as weaker potency.
